Tests used:
[1] = test system: adult subjects with major depressive disorder (MDD); assay: Phase 2 placebo-controlled study in MDD, Sheehan Disability Scale (SDS); type: in vivo, human; conditions: mITT; for Change from Baseline, SDS Total at Week 2, LSM Difference (95% CI) / Change from Baseline, SDS Total at Week 4, LSM Difference (95% CI): 20 mg/day vs Placebo; for Change from Baseline, SDS Total at Week 2, Mean (SD) / Change from Baseline, SDS Total at Week 2, Median / Change from Baseline, SDS Total at Week 4, Mean (SD) / Change from Baseline, SDS Total at Week 4, Median / SDS Total at Week 2, Mean (SD) / SDS Total at Week 2, Median / SDS Total at Week 4, Mean (SD) / SDS Total at Week 4, Median: 20 mg/day
Experimental: (§1) A Phase 2, multicenter, double-blind, randomized, placebo-controlled study of the safety and efficacy of SP-624 in the treatment of adult subjects with major depressive disorder (MDD) as defined by the Diagnostic and Statistical Manual of Mental Disorders, Fifth Edition (DSM-5) was carried out. Following the successful completion of a Screening Phase, subjects were randomized to one of two treatment groups in a 1:1 ratio and received Compound 1 (SP-624) or placebo over a treatment period of four weeks (Treatment Group #1: SP-624 20 mg/day; Treatment Group #2: Placebo).
(§2) Prior to initiating the 4-week treatment period, subjects completed a Screening/Baseline period of up to 28 days, during which time all screening assessments were performed, and any current depression medications discontinued. All screening assessments were completed before discontinuing any current depression medications. Subjects returned for a Baseline Visit to complete efficacy and safety assessments. During the treatment period, subjects returned to the investigative site to complete efficacy and safety assessments at the end of Weeks 1, 2, 3, and 4. After the final dose of study drug, subjects completed a follow-up period of two weeks and returned at the end of Weeks 5 and 6. Subjects may be treated with anti-depressant medications according to physician recommendations after completion of the Week 5 Visit.
(§3) Each dose of Compound 1 was supplied as two capsules, each containing 10 mg of active pharmaceutical ingredient (API). Matching placebo capsules identical in shape and color to the active capsules were used.
(§4) Secondary efficacy endpoints included: • Change from Baseline to Weeks 1, 2, and 3 in MADRS total score, • Change from Baseline to Weeks 1, 2, 3, and 4 in Clinical Global Impression-Severity (CGI-S) total score, • Change from Baseline to Week 5 and change from Week 4 to Week 5 in MADRS total score and CGI-S total score, • Change from Baseline to Week 2 and Week 4 in the 17-item Hamilton Depression Rating Scale (HAM D-17) total score, • Change from Baseline to Week 2 and Week 4 in the Sheehan Disability Scale (SDS), • Change from Baseline to Week 2 and Week 4 in the Quick Inventory of Depressive Symptomology-Self Report (QIDS-SR), and • Change from Baseline to Week 2 and Week 4 in the Quality of Life Enjoyment and Satisfaction Questionnaire-Short Form (Q-LES-Q-SF).

[2] = test system: adult subjects with major depressive disorder (MDD); assay: Phase 2 placebo-controlled study in MDD, Montgomery-Asberg Depression Rating Scale (MADRS) total score; type: in vivo, human; conditions: mITT
Experimental: as §1, §2, §3
The primary efficacy endpoint was Change from Baseline to Week 4 in Montgomery-Asberg Depression Rating Scale (MADRS) total score.
as §4

[3] = Female, 20 mg/day vs Placebo, MMRM

COC1=CC(=O)C[C@@H](C)[C@]12Oc1c(Cl)c(-c3nnc(C)o3)cc(OC)c1C2=O [SP-624, (2S,6′R)-7-Chloro-2′,4-dimethoxy-6′-methyl-6-(5-methyl-1,3,4-oxadiazol-2-yl)-3H-spiro[1-benzofuran-2,1′-cyclohex [2]ene]-3,4′-dione]
Change from Baseline, SDS Total at Week 2, LSM Difference (95% CI) ([1]; Female): −1.7 (−3.3, −0.1) | Change from Baseline, SDS Total at Week 4, LSM Difference (95% CI) ([1]; Female): −2.0 (−3.8, −0.2) | Change from Baseline, SDS Total at Week 2, Mean (SD) ([1]; Female): −4.7 (5.74) | Change from Baseline, SDS Total at Week 2, Median ([1]; Female): −4 | Change from Baseline, SDS Total at Week 4, Mean (SD) ([1]; Female): −5.8 (6.70) | Change from Baseline, SDS Total at Week 4, Median ([1]; Female): −5 | SDS Total at Week 2, Mean (SD) ([1]; Female): 11.8 (6.24) | SDS Total at Week 2, Median ([1]; Female): 11 | SDS Total at Week 4, Mean (SD) ([1]; Female): 11.2 (6.98) | SDS Total at Week 4, Median ([1]; Female): 11 | Change from Baseline, SDS Total at Week 2, LSM Difference (95% CI) ([1]; Male): 2.6 (0.3, 4.8) | Change from Baseline, SDS Total at Week 4, LSM Difference (95% CI) ([1]; Male): 1.3 (−1.3, 3.8) | Change from Baseline, SDS Total at Week 2, Mean (SD) ([1]; Male): −2.4 (5.27) | Change from Baseline, SDS Total at Week 2, Median ([1]; Male): −2 | Change from Baseline, SDS Total at Week 4, Mean (SD) ([1]; Male): −5.0 (6.14) | Change from Baseline, SDS Total at Week 4, Median ([1]; Male): −4 | SDS Total at Week 2, Mean (SD) ([1]; Male): 12.8 (5.99) | SDS Total at Week 2, Median ([1]; Male): 13 | SDS Total at Week 4, Mean (SD) ([1]; Male): 10.5 (6.39) | SDS Total at Week 4, Median ([1]; Male): 10 | Change from Baseline, MADRS Total at Week 1, LSM Difference (95% CI) [2, 3]: −0.9 (−2.8, 1.1) | Change from Baseline, MADRS Total at Week 2, LSM Difference (95% CI) [2, 3]: −1.9 (−4.3, 0.5) | Change from Baseline, MADRS Total at Week 3, LSM Difference (95% CI) [2, 3]: −3.5 (−6.2, −0.8) | Change from Baseline, MADRS Total at Week 4, LSM Difference (95% CI) [2, 3]: −3.9 (−6.8, −1.0) | Change from Baseline, MADRS Total at Week 1, Mean (SD) ([2]; Female, 20 mg/day): −6.6 (6.19) | Change from Baseline, MADRS Total at Week 1, Median ([2]; Female, 20 mg/day): −6 | Change from Baseline, MADRS Total at Week 2, Mean (SD) ([2]; Female, 20 mg/day): −10.1 (8.20) | Change from Baseline, MADRS Total at Week 2, Median ([2]; Female, 20 mg/day): −8 | Change from Baseline, MADRS Total at Week 3, Mean (SD) ([2]; Female, 20 mg/day): −12.5 (9.74) | Change from Baseline, MADRS Total at Week 3, Median ([2]; Female, 20 mg/day): −11 | Change from Baseline, MADRS Total at Week 4, Mean (SD) ([2]; Female, 20 mg/day): −13.5 (10.40) | Change from Baseline, MADRS Total at Week 4, Median ([2]; Female, 20 mg/day): −13 | MADRS Total at Week 1, Mean (SD) ([2]; Female, 20 mg/day): 26.7 (8.10) | MADRS Total at Week 1, Median ([2]; Female, 20 mg/day): 27 | MADRS Total at Week 2, Mean (SD) ([2]; Female, 20 mg/day): 23.1 (8.76) | MADRS Total at Week 2, Median ([2]; Female, 20 mg/day): 25 | MADRS Total at Week 3, Mean (SD) ([2]; Female, 20 mg/day): 20.8 (10.11) | MADRS Total at Week 3, Median ([2]; Female, 20 mg/day): 21 | MADRS Total at Week 4, Mean (SD) ([2]; Female, 20 mg/day): 19.8 (10.75) | MADRS Total at Week 4, Median ([2]; Female, 20 mg/day): 21 | Change from Baseline, MADRS Total at Week 1, LSM Difference (95% CI) ([2]; Male, 20 mg/day vs Placebo, MMRM): 0.7 (−2.7, 4.1)
